Active and inactive are the calls of the source. The rule behind the calls is not given here.
Key:
[1] = tested on: T47D; assay: Growth inhibition of human T47D cells after 48 hrs; format: functional
[2] = tested on: HCT-116; assay: Growth inhibition of human HCT116 cells after 48 hrs; format: functional; settings: HCT-116, 48 h
[3] = tested on: SNU-398; assay: Growth inhibition of human SNU398 cells after 48 hrs; format: functional; settings: SNU-398, 48 h
[4] = tested on: SNU-398; assay: Induction of apoptosis in human SNU398 cells measured after 48 hrs by cell and caspase based HTS assay; format: functional; settings: SNU-398, 48 h
[5] = tested on: HCT-116; assay: Induction of apoptosis in human HCT116 cells measured after 48 hrs by cell and caspase based HTS assay; format: functional; settings: HCT-116, 48 h
[6] = tested on: T47D; assay: Induction of apoptosis in human T47D cells measured after 48 hrs by cell and caspase based HTS assay; format: functional
[7] = tested on: T47D; assay: Cell cycle arrest in human T47D cells by accumulation at G2/M phase after 24 to 48 hrs by flow cytometry; format: functional, cell-based
[8] = Inhibition of tubulin polymerization up to 50 uM
[9] = Inhibition of tubulin polymerization

GI50 [1]	GI50 [2]	GI50 [3]	EC50 [4]	EC50 [5]	EC50 [6]	Activity [8]	IC50 [9]	Compound	Activity [7]
			> 10 µM	> 10 µM	150 nM			N#Cc1cc(C(=O)c2cccc([N+](=O)[O-])c2)n2c1ccc1c(Cl)cccc12	
160 nM	5900 nM	2600 nM	2.6 µM	2.7 µM	280 nM	inactive		N#Cc1cc(C(=O)c2cccc(O)c2)n2c1ccc1c(Cl)cccc12	Active
			5 µM	5.6 µM	210 nM			N#Cc1cc(C(=O)c2cccc(N)c2)n2c1ccc1c(Cl)cccc12	
			> 10 µM	> 10 µM	53 nM	inactive		N#Cc1cc(C(=O)c2ccc(F)cc2)n2c1ccc1c(Cl)cccc12	Active
18 nM	8600 nM	4800 nM	1.5 µM	3.7 µM	80 nM			COc1cccc(C(=O)c2cc(C#N)c3ccc4c(Cl)cccc4n23)c1	
			> 10 µM	1.9 µM	83 nM	inactive		N#Cc1cc(C(=O)c2ccccc2)n2c1ccc1c(Cl)cccc12	Active
			> 10 µM	> 10 µM	62 nM			N#Cc1cc(C(=O)c2ccc([N+](=O)[O-])cc2)n2c1ccc1c(Cl)cccc12	

Continued, compound first:

Compound	GI50 [1]	GI50 [2]	GI50 [3]	EC50 [4]	EC50 [5]	EC50 [6]	Activity [8]	IC50 [9]	Activity [7]
CC(=O)O[C@H]1C(=O)[C@@]2(C)[C@H]([C@H](OC(=O)c3ccccc3)[C@]3(O)C[C@H](OC(=O)[C@H](O)[C@@H](NC(=O)c4ccccc4)c4ccccc4)C(C)=C1C3(C)C)[C@]1(OC(C)=O)CO[C@@H]1C[C@@H]2O [PACLITAXEL]	26 nM	60 nM	61 nM	0.009 µM	0.018 µM	37 nM			
N#Cc1cc(C(=O)c2ccc(N)cc2)n2c1ccc1c(Cl)cccc12				1.4 µM	3.8 µM	150 nM			
N#Cc1cc(C(=O)c2ccccc2)n2c1ccc1c(OCCN3CCOCC3)cccc12				> 10 µM	> 10 µM	> 10000 nM			
Cc1ccc2c(ccc3c(C#N)cc(C(=O)c4ccccc4)n32)c1				> 10 µM	> 10 µM	> 10000 nM			
Cc1cc2ccccc2n2c(C(=O)c3ccccc3)cc(C#N)c12				> 10 µM	> 10 µM	5800 nM			
Cc1ccc2ccc3c(C#N)cc(C(=O)c4ccccc4)n3c2c1				5 µM	> 10 µM	280 nM			
N#Cc1cc(C(=O)c2ccccc2)n2c1ccc1c([N+](=O)[O-])cccc12				> 10 µM	> 10 µM	> 10000 nM			
N#Cc1cc(C(=O)c2ccc(-n3ccnc3)cc2)n2c1ccc1c(Cl)cccc12				1.4 µM	1.9 µM	290 nM			
CC[C@]1(O)C[C@@H]2CN(CCc3c([nH]c4ccccc34)[C@@](C(=O)OC)(c3cc4c(cc3OC)N(C)[C@H]3[C@@](O)(C(=O)OC)[C@H](OC(C)=O)[C@]5(CC)C=CCN6CC[C@]43[C@@H]65)C2)C1 [VINBLASTINE]	7 nM	10 nM	5 nM	0.026 µM	0.036 µM	32 nM			
CN(C)CCOc1cccc2c1ccc1c(C#N)cc(C(=O)c3ccccc3)n12				4.9 µM	6 µM	2800 nM			
N#Cc1cc(C(=O)c2ccccc2)n2c1ccc1cc(Cl)ccc12				> 10 µM	> 10 µM	> 10000 nM			
N#Cc1cc(C(=O)c2ccc(-n3ccnc3)cc2)n2c1ccc1ccccc12								< 5 µM	
Cc1cc2c(C#N)cc(C(=O)c3ccccc3)n2c2ccccc12				0.22 µM	0.31 µM	520 nM		< 5 µM	
N#Cc1cc(C(=O)c2ccccc2)n2c1ccc1c(O)cccc12				> 10 µM	> 10 µM	> 10000 nM			
N#Cc1cc(C(=O)c2ccc(N)cc2)n2c1ccc1ccccc12								< 5 µM	

Source: ChEMBL document CHEMBL1136982, “Discovery of 1-benzoyl-3-cyanopyrrolo[1,2-a]quinolines as a new series of apoptosis inducers using a cell- and caspase-based high-throughput screening assay. 2: Structure-activity relationships of the 4-, 5-, 6-, 7- and 8-positions” (Bioorg Med Chem Lett, 2009)
